According to PubChem BioAssay (NCI):
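Assay format: 96-well plates, 48-hour exposure. Here, GI50 denotes the concentration required for 50% inhibition of growth. TGI: total growth inhibition.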

How the values were obtained:
Test in all cases: NCI anticancer screen, dose series, 48 h
SK-OV-3 ovarian = system: SK-OV-3 ovarian
EKVX NSCLC = system: EKVX NSCLC
A549 NSCLC = system: A549 NSCLC
UO-31 renal = system: UO-31 renal
786-0 renal = system: 786-0 renal
ACHN renal = system: ACHN renal
TK-10 renal = system: TK-10 renal
NCI-H23 lung = system: NCI-H23 lung
U251 CNS = system: U251 CNS
MCF7 breast = system: MCF7 breast
SNB-19 CNS = system: SNB-19 CNS
SK-MEL-28 melanoma = system: SK-MEL-28 melanoma
NCI-H226 lung = system: NCI-H226 lung
KM12 colon = system: KM12 colon
OVCAR-3 ovarian = system: OVCAR-3 ovarian
OVCAR-5 ovarian = system: OVCAR-5 ovarian
SF-295 CNS = system: SF-295 CNS
IGROV1 ovarian = system: IGROV1 ovarian
M14 melanoma = system: M14 melanoma
T-47D breast = system: T-47D breast
SK-MEL-5 melanoma = system: SK-MEL-5 melanoma
NCI/ADR-RES ovarian = system: NCI/ADR-RES ovarian
HS 578T breast = system: HS 578T breast
HCT-15 colon = system: HCT-15 colon
UACC-62 melanoma = system: UACC-62 melanoma
HT29 colon = system: HT29 colon
CAKI-1 renal = system: CAKI-1 renal
COLO 205 colon = system: COLO 205 colon
BT-549 breast = system: BT-549 breast
A498 renal = system: A498 renal
SF-268 CNS = system: SF-268 CNS
SF-539 CNS = system: SF-539 CNS
SK-MEL-2 melanoma = system: SK-MEL-2 melanoma
K-562 leukemia = system: K-562 leukemia
MDA-MB-435 = system: MDA-MB-435
CCRF-CEM leukemia = system: CCRF-CEM leukemia
NCI-H460 lung = system: NCI-H460 lung
LOX IMVI melanoma = system: LOX IMVI melanoma
HOP-62 NSCLC = system: HOP-62 NSCLC
NCI-H522 lung = system: NCI-H522 lung
RPMI-8226 leukemia = system: RPMI-8226 leukemia
HOP-92 NSCLC = system: HOP-92 NSCLC
SR leukemia = system: SR leukemia
HCT-116 colon = system: HCT-116 colon
MALME-3M melanoma = system: MALME-3M melanoma
DU-145 prostate = system: DU-145 prostate
HL-60(TB) leukemia = system: HL-60(TB) leukemia
MOLT-4 leukemia = system: MOLT-4 leukemia
PC-3 prostate = system: PC-3 prostate
RXF 393 renal = system: RXF 393 renal
UACC-257 melanoma = system: UACC-257 melanoma
OVCAR-8 ovarian = system: OVCAR-8 ovarian
OVCAR-4 ovarian = system: OVCAR-4 ovarian
SN12C renal = system: SN12C renal
SNB-75 CNS = system: SNB-75 CNS
MDA-MB-231 breast = system: MDA-MB-231 breast
SW-620 colon = system: SW-620 colon
HCC-2998 colon = system: HCC-2998 colon

Clc1ccc(N2COOC3(OOC2)C2CC4CC(C2)CC3C4)cc1
GI50 (SK-OV-3 ovarian): > 100 µM
TGI (SK-OV-3 ovarian): > 100 µM
GI50 (EKVX NSCLC): 4.17 µM
TGI (EKVX NSCLC): > 100 µM
GI50 (A549 NSCLC): 5.18 µM
TGI (A549 NSCLC): > 100 µM
GI50 (UO-31 renal): 0.579 µM
TGI (UO-31 renal): 2.21 µM
GI50 (786-0 renal): 1.21 µM
TGI (786-0 renal): 5.73 µM
GI50 (ACHN renal): 0.622 µM
TGI (ACHN renal): 6.03 µM
GI50 (TK-10 renal): 4.98 µM
TGI (TK-10 renal): 10.5 µM
GI50 (NCI-H23 lung): 11.5 µM
TGI (NCI-H23 lung): 31.6 µM
GI50 (U251 CNS): 11.9 µM
TGI (U251 CNS): 32.9 µM
GI50 (MCF7 breast): 3.98 µM
TGI (MCF7 breast): > 46.1 µM
GI50 (SNB-19 CNS): > 40 µM
TGI (SNB-19 CNS): > 100 µM
GI50 (SK-MEL-28 melanoma): > 30.8 µM
TGI (SK-MEL-28 melanoma): > 100 µM
GI50 (NCI-H226 lung): > 61.2 µM
TGI (NCI-H226 lung): > 100 µM
GI50 (KM12 colon): 2.02 µM
TGI (KM12 colon): > 100 µM
GI50 (OVCAR-3 ovarian): 13.2 µM
TGI (OVCAR-3 ovarian): 39.1 µM
GI50 (OVCAR-5 ovarian): 8.34 µM
TGI (OVCAR-5 ovarian): > 74.8 µM
GI50 (SF-295 CNS): 2.99 µM
TGI (SF-295 CNS): 17.9 µM
GI50 (IGROV1 ovarian): 1.81 µM
TGI (IGROV1 ovarian): 6.22 µM
GI50 (M14 melanoma): 1.48 µM
TGI (M14 melanoma): > 100 µM
GI50 (T-47D breast): 4.97 µM
TGI (T-47D breast): > 100 µM
GI50 (SK-MEL-5 melanoma): 1.25 µM
TGI (SK-MEL-5 melanoma): > 24.2 µM
GI50 (NCI/ADR-RES ovarian): 5.34 µM
TGI (NCI/ADR-RES ovarian): 74.9 µM
GI50 (HS 578T breast): 8.99 µM
TGI (HS 578T breast): > 100 µM
GI50 (HCT-15 colon): 0.864 µM
TGI (HCT-15 colon): > 41.9 µM
GI50 (UACC-62 melanoma): 1.01 µM
TGI (UACC-62 melanoma): > 43 µM
GI50 (HT29 colon): 9.93 µM
TGI (HT29 colon): > 60.1 µM
GI50 (CAKI-1 renal): 0.299 µM
TGI (CAKI-1 renal): 19.5 µM
GI50 (COLO 205 colon): 12.7 µM
TGI (COLO 205 colon): 90.8 µM
GI50 (BT-549 breast): 5.96 µM
TGI (BT-549 breast): > 58 µM
GI50 (A498 renal): 11.9 µM
TGI (A498 renal): > 100 µM
GI50 (SF-268 CNS): 5.88 µM
TGI (SF-268 CNS): > 67.4 µM
GI50 (SF-539 CNS): 4.74 µM
TGI (SF-539 CNS): 59.3 µM
GI50 (SK-MEL-2 melanoma): 10.5 µM
TGI (SK-MEL-2 melanoma): > 88.3 µM
GI50 (K-562 leukemia): 0.543 µM
TGI (K-562 leukemia): > 39.5 µM
GI50 (MDA-MB-435): 1.61 µM
TGI (MDA-MB-435): 13.2 µM
GI50 (CCRF-CEM leukemia): 2.81 µM
GI50 (NCI-H460 lung): 1.57 µM
TGI (NCI-H460 lung): 9.27 µM
GI50 (LOX IMVI melanoma): 0.15 µM
TGI (LOX IMVI melanoma): 2.44 µM
GI50 (HOP-62 NSCLC): 13.9 µM
TGI (HOP-62 NSCLC): 38.6 µM
GI50 (NCI-H522 lung): 1.75 µM
TGI (NCI-H522 lung): 6.91 µM
GI50 (RPMI-8226 leukemia): 4.28 µM
TGI (RPMI-8226 leukemia): 14.7 µM
GI50 (HOP-92 NSCLC): 14.9 µM
TGI (HOP-92 NSCLC): 43.5 µM
GI50 (SR leukemia): 2.19 µM
TGI (SR leukemia): 11.4 µM
GI50 (HCT-116 colon): 4.1 µM
TGI (HCT-116 colon): > 50.2 µM
GI50 (MALME-3M melanoma): 14.4 µM
TGI (MALME-3M melanoma): > 100 µM
GI50 (DU-145 prostate): 8.83 µM
TGI (DU-145 prostate): > 89 µM
GI50 (HL-60(TB) leukemia): 1.55 µM
TGI (HL-60(TB) leukemia): 8.27 µM
GI50 (MOLT-4 leukemia): 3.82 µM
TGI (MOLT-4 leukemia): > 50.7 µM
GI50 (PC-3 prostate): 5.11 µM
TGI (PC-3 prostate): > 75.3 µM
GI50 (RXF 393 renal): 6.96 µM
TGI (RXF 393 renal): > 59.3 µM
GI50 (UACC-257 melanoma): > 54.4 µM
TGI (UACC-257 melanoma): > 100 µM
GI50 (OVCAR-8 ovarian): 14.4 µM
TGI (OVCAR-8 ovarian): > 100 µM
GI50 (OVCAR-4 ovarian): 5.52 µM
TGI (OVCAR-4 ovarian): > 59.5 µM
GI50 (SN12C renal): 5.35 µM
TGI (SN12C renal): > 56.9 µM
GI50 (SNB-75 CNS): 10.8 µM
TGI (SNB-75 CNS): 55.2 µM
GI50 (MDA-MB-231 breast): 6.69 µM
TGI (MDA-MB-231 breast): > 57.9 µM
TGI (SW-620 colon): > 57.8 µM
GI50 (HCC-2998 colon): > 24.4 µM
TGI (HCC-2998 colon): > 100 µM
